Measured values published in ChEMBL document CHEMBL1152232, “Muscarinic acetylcholine receptor antagonists: SAR and optimization of tyrosine ureas” (Bioorg Med Chem Lett, 2008).

How the values were obtained:
[1] = molecular target: T1, Muscarinic acetylcholine receptor M1 (Homo sapiens, UniProt P11229); assay: Antagonist activity at human recombinant muscarinic M1 receptor expressed in CHO cells assessed as inhibition of acetylcholine-induced intracellular Ca2+ mobilization by FLIPR assay; format: functional, cell-based
T1 sequence (P11229 whole entry): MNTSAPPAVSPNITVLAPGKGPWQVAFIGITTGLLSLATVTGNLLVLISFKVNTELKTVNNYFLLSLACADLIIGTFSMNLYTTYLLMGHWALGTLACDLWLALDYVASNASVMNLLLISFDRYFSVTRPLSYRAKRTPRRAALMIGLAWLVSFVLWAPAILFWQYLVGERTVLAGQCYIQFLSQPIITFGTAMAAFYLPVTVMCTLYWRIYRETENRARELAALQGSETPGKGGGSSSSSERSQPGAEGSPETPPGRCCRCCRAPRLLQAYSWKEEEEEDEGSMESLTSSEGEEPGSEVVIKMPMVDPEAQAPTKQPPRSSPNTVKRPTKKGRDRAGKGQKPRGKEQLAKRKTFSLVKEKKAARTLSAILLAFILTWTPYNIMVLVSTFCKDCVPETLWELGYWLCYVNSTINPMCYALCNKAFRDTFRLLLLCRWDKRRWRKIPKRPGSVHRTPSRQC

[2] = molecular target: Muscarinic acetylcholine receptor M1 and M3 (Homo sapiens) (UniProt P20309+P11229); assay: Selectivity for human recombinant muscarinic M3 receptor over human recombinant muscarinic M1 receptor
Sequence of Muscarinic acetylcholine receptor M1 and M3 (Homo sapiens) (P20309 whole entry, looked up, one chain of several): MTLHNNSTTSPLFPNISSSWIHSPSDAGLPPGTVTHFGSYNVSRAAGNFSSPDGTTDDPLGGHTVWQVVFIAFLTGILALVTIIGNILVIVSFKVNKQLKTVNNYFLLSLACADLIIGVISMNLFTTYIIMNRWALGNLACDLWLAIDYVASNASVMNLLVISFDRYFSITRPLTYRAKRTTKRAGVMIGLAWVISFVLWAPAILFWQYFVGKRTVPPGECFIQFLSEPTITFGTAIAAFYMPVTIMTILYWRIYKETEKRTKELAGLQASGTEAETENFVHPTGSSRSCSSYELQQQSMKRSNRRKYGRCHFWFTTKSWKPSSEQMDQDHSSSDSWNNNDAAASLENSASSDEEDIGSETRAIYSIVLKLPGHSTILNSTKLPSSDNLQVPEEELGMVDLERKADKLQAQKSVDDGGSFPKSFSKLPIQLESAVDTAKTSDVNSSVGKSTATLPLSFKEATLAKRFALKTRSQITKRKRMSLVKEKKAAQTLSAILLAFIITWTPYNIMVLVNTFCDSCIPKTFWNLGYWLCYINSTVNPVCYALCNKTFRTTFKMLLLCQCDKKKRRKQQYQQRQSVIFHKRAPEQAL

[3] = molecular target: T2, Muscarinic acetylcholine receptor M2 (Homo sapiens, UniProt P08172); assay: Antagonist activity at human recombinant muscarinic M2 receptor expressed in CHO cells coexpressing chimeric G protein Gqi5 assessed as inhibition of acetylcholine-induced intracellular Ca2+ mobilization by FLIPR assay; format: functional, cell-based
T2 sequence (P08172 whole entry): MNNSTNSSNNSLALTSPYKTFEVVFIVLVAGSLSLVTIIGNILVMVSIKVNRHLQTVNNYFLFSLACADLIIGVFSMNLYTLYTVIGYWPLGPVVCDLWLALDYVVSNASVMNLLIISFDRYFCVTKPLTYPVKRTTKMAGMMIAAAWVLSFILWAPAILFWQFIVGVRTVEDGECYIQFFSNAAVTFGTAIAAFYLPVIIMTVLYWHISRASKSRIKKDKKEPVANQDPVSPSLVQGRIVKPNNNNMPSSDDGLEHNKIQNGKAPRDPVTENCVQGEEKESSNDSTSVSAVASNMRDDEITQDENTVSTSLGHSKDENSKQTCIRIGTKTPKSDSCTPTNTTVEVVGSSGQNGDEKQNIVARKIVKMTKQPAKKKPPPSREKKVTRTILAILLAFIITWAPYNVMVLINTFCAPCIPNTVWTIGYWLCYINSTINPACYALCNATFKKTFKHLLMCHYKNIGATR

[4] = molecular target: Muscarinic acetylcholine receptor M3 (Homo sapiens, UniProt P20309); assay: Antagonist activity at human recombinant muscarinic M3 receptor expressed in CHO cells assessed as inhibition of acetylcholine-induced intracellular Ca2+ mobilization by FLIPR assay; format: functional, cell-based
Sequence of Muscarinic acetylcholine receptor M3 (P20309 whole entry): as the sequence (P20309 whole entry, looked up, one chain of several) above

[5] = molecular target: Muscarinic acetylcholine receptors; M2 & M3 (Homo sapiens) (UniProt P20309+P08172); assay: Selectivity for human recombinant muscarinic M3 receptor over human recombinant muscarinic M2 receptor
Sequence of Muscarinic acetylcholine receptors; M2 & M3 (Homo sapiens) (P20309 whole entry, looked up, one chain of several): as the sequence (P20309 whole entry, looked up, one chain of several) above

[6] = Permeability across artificial membrane; format: ADME; conditions: PAMPA; read-out: permeability

## CCOC(=O)c1ccc(NC(=O)N[C@@H](Cc2ccc(O)cc2)C(=O)NC2CCN(Cc3ccccc3)C2)cc1 (stereo partly specified)
[1]
  IC50: 2 µM
[2]
  Selectivity ratio: 100
[3]
  IC50: 0.2 µM
[4]
  IC50: 0.0158 µM
[5]
  Selectivity ratio: 10

## CCOC(=O)c1ccc(NC(=O)N[C@@H](Cc2ccc(O)cc2)C(=O)NC2CCN(Cc3cccc(C#N)c3)C2)cc1 (stereo partly specified)
[1]
  IC50: 0.251 µM
[2]
  Selectivity ratio: 100
[3]
  IC50: 0.1 µM
[4]
  IC50: 0.00631 µM
[5]
  Selectivity ratio: 10

## CC(C)OC(=O)c1ccc(NC(=O)N[C@@H](Cc2ccc(O)cc2)C(=O)NC2CCN(Cc3ccc(O)cc3)C2)cc1 (stereo partly specified)
[1]
  IC50: 1 µM
[2]
  Selectivity ratio: 100
[3]
  IC50: 0.0794 µM
[4]
  IC50: 0.00501 µM
[5]
  Selectivity ratio: > 10

## CC(C)OC(=O)c1ccc(NC(=O)N[C@@H](Cc2ccc(O)cc2)C(=O)N[C@H]2CCC[N+](C)(Cc3cccc(O)c3)C2)cc1.[I-] (stereo partly specified)
[6]
  Papp: < 3 nm/s

## CCOC(=O)c1ccc(NC(=O)N[C@@H](Cc2ccc(O)cc2)C(=O)NC2CCN(Cc3cccc(OC)c3)C2)cc1 (stereo partly specified)
[1]
  IC50: 2.51 µM
[2]
  Selectivity ratio: 100
[3]
  IC50: 0.316 µM
[4]
  IC50: 0.0251 µM
[5]
  Selectivity ratio: 10

## C=CC[N+]1(Cc2cccc(O)c2)CCC[C@H](NC(=O)[C@H](Cc2ccc(O)cc2)NC(=O)Nc2ccc(C(=O)OC(C)C)cc2)C1 (stereo partly specified)
[1]; read-out: pA2 (converted)
  Kb: 0.0158 µM
[2]
  Selectivity ratio: 100
[3]; read-out: pA2 (converted)
  Kb: 0.00158 µM
[4]; read-out: pA2 (converted)
  Kb: 0.0001 µM
[5]
  Selectivity ratio: > 10

## CCOC(=O)c1ccc(NC(=O)N[C@@H](Cc2ccc(O)cc2)C(=O)NC2CCN(Cc3cccc(O)c3)C2)cc1 (stereo partly specified)
[1]
  IC50: 0.794 µM
[2]
  Selectivity ratio: 100
[3]
  IC50: 0.158 µM
[4]
  IC50: 0.02 µM
[5]
  Selectivity ratio: 10

## CCOC(=O)c1ccc(NC(=O)N[C@@H](Cc2ccc(O)cc2)C(=O)NC2CCN(Cc3ccc4c(c3)OCO4)C2)cc1 (stereo partly specified)
[1]
  IC50: 1 µM
[2]
  Selectivity ratio: 100
[3]
  IC50: 0.2 µM
[4]
  IC50: 0.0316 µM
[5]
  Selectivity ratio: 10

## CCOC(=O)c1ccc(NC(=O)N[C@@H](Cc2ccc(O)cc2)C(=O)NC2CCN(Cc3cccc(Cl)c3)C2)cc1 (stereo partly specified)
[1]
  IC50: 1.26 µM
[2]
  Selectivity ratio: 100
[3]
  IC50: 0.126 µM
[4]
  IC50: 0.00794 µM
[5]
  Selectivity ratio: 10
